Patent publication US7141661B2, “Non-steroidal anti-inflammatory drug activated gene with anti-tumorigenic properties” (The United States of America as represented by the …, priority 2000, dated 2006)

What was measured:
Format in all cases: cell-based, human
[1] = system: NAG-1; test: Northern blot NAG-1 induction in U937 leukemia cells; settings: INDO treatment, 24 hr
Experimental: NSAID-induced apoptosis is not restricted to colorectal cells, as NSAIDs can induce apoptosis in breast, lung, leukemia, and prostate cell lines. To test for the induction of NAG-1 by NSAIDs in different cell lines, A549 lung epithelial cells, MCF-7 mammary cells, PC-3 prostate cancer cells, and U937 leukemia cell lines were treated with several concentrations of INDO and aspirin. Then, as described above, Northern blot analysis was performed. […] Quiescent cells were grown for 24 hr in the presence of indicated NSAIDs. Total RNAs were isolated and subjected to Northern analysis using NAG-1 and β-actin as probes. The blots contained 10 μg of total RNA from INDO- or Aspirin (Asp)-treated cells with indicated doses. “V” indicates total RNAs from vehicle (0.2% DMSO) treated cells. The results shown are representative of those obtained in two experiments.

[2] = system: NAG-1; test: Western blot analysis of secreted NAG-1 protein from HCT-116 cells; settings: HCT-116, 100 μM INDO, 36 and 48 hr, no serum
Experimental: The level of secreted NAG-1 was evaluated using Western blot analysis with anti-human-NAG-1 antibody (generously provided by Dr. Paralkar of Pfizer). HCT-116 cells were grown to 60–80% confluency in 10 cm plates followed by 48 hr treatment in the absence of serum with either NSAIDs or TGZ. The media were harvested and concentrated approximately 15-fold using Centriprep 10 concentrators (Amicon). Proteins (30 μg) were separated by 15% SDS-PAGE and transferred for 1 hr onto nitrocellulose membrane (Schleicher & Schuell). The blots were blocked for 1 hr with 5% skim milk in TBS/Tween 0.05%, and probed with anti-NAG-1 antibody (1 μg/ml in TBS-0.2%-Tween20) at […] overnight. After washing, the blots were treated with horseradish peroxidase-conjugated secondary antibody for 1 hr and washed several times. The signal was detected by enhanced chemiluminescence system (AMERSHAM) and autoradiography.
HCT-116 cells were treated with 100 μM INDO in the absence of serum for various times. In FIG. 1B, left panel. 10 μg of total RNA was loaded in each lane. Northern blotting was performed using the NAG-1 probe and re-probed with β-actin probe. The hybridization signals were quantitated using Scion Image software (Scion). Levels of the 1.3 kb NAG-1 transcript were normalized to the levels of β-actin transcripts and represented relative to 0 hr treatment. […] The signal was detected by ECL reagent (AMERSHAM).

[3] = system: NAG-1; test: Northern blot analysis of NAG-1 mRNA expression in HCT-116 cells; settings: HCT-116, 100 μM INDO, 48 hr, no serum
[4] = system: NAG-1; test: Western analysis of NAG-1 in stably transfected HCT-116 cells; settings: antisense HCT-116 cells, 100 μM, 48 hr
From the text: HCT-116 cells were stably transfected with an expression vector containing the full-length NAG-1 coding region in the sense and antisense orientations. The sense cells expressed NAG-1 protein at a level that was 2.0–2.5 fold greater than the vector transfected cells, while the anti-sense cells expressed slightly lower NAG-1 levels compared to vector transfected cells. […] The full-length NAG-1 (sense strand and antisense strand) was cloned into the pCDNA3.1 expression vector and transfected into HCT-116 cells. Each cell was grown under G418 (500 μg/ml) for 2 weeks and treated with either vehicle or INDO (100 μM). After growing for 48 hr, the media was harvested, concentrated, and subjected to Western analysis. Thirty μg of total protein was loaded in each lane, and the arrow indicates the NAG-1 protein band.

With `COc1ccc2c(c1)c(CC(=O)O)c(C)n2C(=O)c1ccc(Cl)cc1` [Indomethacin] the NAG-1 expression [1] was “only a modest increase”, the NAG-1 protein expression [2] was “marked increase” and the “NAG-1 mRNA expression” value [3] was “further increase”. The “Expression of NAG-1” value [4] was “did not stimulate apoptosis or increase the expression of NAG-1”.
